What was measured:
[1] = tested on: stromal cells prepared from the femoral bone marrow of a normal rat; test: Osteogenesis-promoting action: alkaline phosphatase activity in rat bone marrow stromal cells; assay type: cell-based; conditions: 10 to 14 days cultivation, mean ±SE, control 113.7 ± 8.1
Procedure: Using stromal cells prepared from the femoral bone marrow of a normal rat, alkaline phosphatase activity was determined as an index of osteogenesis. Specifically, stromal cells, prepared from the femoral bone marrow of a 7-week-old male Sprague-Dawley rat by the method of Maniatopoulos et al. [Cell Tissue Research, Vol. 254, p. 317 (1988)], were cultured in an α-MEM (minimum essential medium) solution containing both dexamethasone (10^−7 M) and β-glycerophosphoric acid (10^−2 M) to obtain mineralized bone-like tissue. One week later, the test compound (10^−6 M or 10^−5 M) was added to the confluent cells, followed by 10 to 14 more days of cultivation in the above culture broth. After washing with phosphate buffer, the cells were homogenized with 0.2% Nonidet P-40 and centrifuged at 3,000 rpm for 10 minutes. The resulting supernatant was assayed for alkaline phosphatase activity by the method of Lowry et al. [Journal of Biological Chemistry, Vol. 207, p. 19 (1954)]. The values obtained are given in mean ±SE in Table 1. The data were statistically analyzed by Student's t-test.

Structure (SMILES)	melting point [°C]	Alkaline Phosphatase Activity ([1]; test compound 10^−5 M)	Alkaline Phosphatase Activity ([1]; test compound 10^−6 M)
COP(=O)(Cc1ccc(NC(=O)[C@H]2Cc3cc4c(cc3C(=O)[C@H](C)S2)OCO4)cc1)OC	198 to 199	–	–
CCOP(=O)(Cc1ccc(NC(=O)[C@@H]2Cc3cc4c(cc3C(=O)[C@@H](C)S2)OCO4)cc1)OCC	183 to 184	–	–
CCOP(=O)(Cc1ccc(NC(=O)[C@H]2Cc3cc4c(cc3C(=O)[C@H](C)S2)OCO4)cc1)OCC [Example 1, (2R,4S)-(−)-N-[4-(Diethoxyphosphorylmethyl)phenyl]-1,2,4,5-tetrahydro-4-methyl-7,8-methylenedioxy-5-oxo-3-benzothiepin-2-carboxamide]	–	1635.5 ± 169.7 nmol p-nitrophenol/min/well	682.5 ± 123.2 nmol p-nitrophenol/min/well
